Laboratory results as given in patent US20120178158A1, “ADULT ANIMALS GENERATED FROM INDUCED PLURIPOTENT CELLS” (The Scripps Research Institute, priority 2009, published 2012).

Experiments:
[1] = test system: mouse embryonic fibroblasts (MEFs); test: Dox-inducible lentiviral reprogramming of fibroblasts to iPSC colonies; format: cell-based
Text: We reasoned that inappropriate expression of reprogramming genes during development could inhibit embryonic and postnatal development. Therefore, we designed a drug-inducible lentiviral reprogramming strategy to achieve tight control of transgene expression in iPSCs and their derivatives (FIG. 1b)^19. The four original reprogramming factors (Oct4, Sox2, Klf4 and cMyc) were placed under control of the tetO promoter, which is activated by the reverse tetracycline transactivator (rtTA) protein in the presence of the tetracycline analog doxycycline (dox). We used an enhanced version of the rtTA transcriptional activator protein (rtTAM2.2) that induces higher gene expression levels than the rtTAM2 protein^20. To promote complete reprogramming and facilitate isolation of fully reprogrammed iPSCs we exposed MEFs to the histone deacetylase inhibitor valproic acid (VPA), which has been reported to enhance reprogramming efficiency^21 and to select against incompletely reprogrammed cells by inhibiting cell division^22 (Supplementary methods).
Generation of iPSCs. Mouse embryonic fibroblasts (MEFs) were prepared from Pcdh21/Cre-Z/EG (iMZ lines) or Nex/Cre-Z/EG (iNZ lines) E13.5 embryos. Generation of iMZ lines: After 24 hours in culture, individual wells of ˜300,000 MEFs were transduced with lentiviruses (day 1) and split 1:2 (day 2) and 1:3 (day 3) to generate 6 wells of transduced MEFs. On post-transduction day 4, dox (10 μg/ml) was added to four wells to induce expression of reprogramming genes; three of these wells were also treated with VPA (1.9 mM). The remaining two wells were treated with nothing, or VPA alone. To maintain conditions for optimal MEF growth and viability, on post-transduction day five, the three dox+VPA wells were expanded into a 15 cm^2 dish while the other three conditions were expanded to 10 cm^2 dishes. […] On day 14, additional colonies were isolated, of which 12 were expanded (lines iMZ-9-21) and characterized further. […] On post-transduction day 17, all putative iPSC lines were transferred to fresh feeders in single 96 well plates. Cell lines were expanded into two wells on post-transduction day 21. Cells were maintained in dox+VPA until post-transduction day 23, when both were removed. All cell lines appeared to maintain ESC like morphology and proliferation rates. Lines were expanded to 24 well plates on day 24. Subsequently, cell lines were banked and maintained as described in the cell culture conditions section. Generation of iNZ lines: Initial reprogramming conditions were identical to those of iMZ lines except that cells were split 1:2 on post-transduction day 3 to generate four wells (dox+VPA, dox only, VPA only and no treatment). Cells were split once after dox and VPA addition. […]

Gtl2/Dlk1 (Gtl2 locus) = test: Methylation / activity of the Gtl2 locus in iPS cell lines derived with or without VPA; format: cell-based, mouse; conditions: VPA+ (n = 15 cell lines)
Text: In some embodiments, the induction conditions include contacting the cells with a histone deacetylase inhibitor or other compound that alters epigenetic marks. […] See, Stadfeld, et al., Nature. 465(7295):175-81 (2010); Liu et al., J Biol Chem. 285(25):19483-90 (2010). Normal ESCs express genes from one of the two parental chromosomes. Previous non-fully pluripotent IPSC lines have reduced expression from both parental Gtl loci by allowing extra epigenetic marking. These iPSC lines have methylated both Gtl2 loci and also may have distinct histone acetylation and methylation that turns off gene expression which correlates with or causes failure to generate live animals. The methods described herein produce a high frequency of cell lines that generate mice and these lines have an active and properly imprinted (i.e., hemi-methylated and histone acetylated) Gtl2 locus. When the epigenetic remodeling compound, VPA is removed from the method but no other variables are changed, the Gtl2 locus is no longer active or properly imprinted in the majority of cell lines. Therefore inclusion of VPA, or other histone deacetylase inhibitors or epigenetic remodeling compounds, regulates imprinting of the Gtl2 locus and other genomic regions that control pluripotency.

SMILES	post-transduction day on which colonies were observed ([1]; iMZ lines, Pcdh21/Cre-Z/EG MEFs, dox 10 μg/ml, VPA 1.9 mM from day 4)	post-transduction day on which colonies were observed ([1]; iNZ lines, Nex/Cre-Z/EG MEFs)	colonies observed on day 14 ([1]; iNZ lines, Nex/Cre-Z/EG MEFs, post-transduction day 14)	% iPS Cell Lines with Active Gtl2 Locus: % Locus Unmethylated High (>40%) (Gtl2/Dlk1 (Gtl2 locus); share of lines in class High (>40%))	% iPS Cell Lines with Active Gtl2 Locus: % Locus Unmethylated Low (1-10%) (Gtl2/Dlk1 (Gtl2 locus); share of lines in class Low (1-10%))	% iPS Cell Lines with Active Gtl2 Locus: % Locus Unmethylated Medium (10-40%) (Gtl2/Dlk1 (Gtl2 locus); share of lines in class Medium (10-40%))	% iPS Cell Lines with Active Gtl2 Locus: % Locus Unmethylated Negative (not detectable) (Gtl2/Dlk1 (Gtl2 locus); share of lines in class Negative (not detectable))	colony emergence in the absence of dox ([1]; iMZ MEFs, VPA alone 1.9 mM, no dox)
C[C@H]1c2cccc(O)c2C(=O)C2=C(O)[C@]3(O)C(=O)C(C(N)=O)=C(O)[C@@H](N(C)C)[C@@H]3[C@@H](O)[C@@H]21 [dox, doxycycline]	11	11	19					
CCCC(CCC)C(=O)O [VPA, valproic acid]				27%	40%	33%	0%	No colonies emerged
